For 5 molecules, inhibition and IC50 results are on record in ChEMBL document CHEMBL5137020, “Electrostatic Complementarity in Structure-Based Drug Design” (J Med Chem, 2022).

The species named for test [1] is Homo sapiens. The test is described as follows: Inhibition of cIAP BIR3 domain (unknown origin) at 495 uM relative to control.
Another test has as its target Cathepsin S (Homo sapiens, UniProt P25774). Description: Inhibition of Cathepsin S (unknown origin).
Another test concerns the target Procathepsin L (Homo sapiens, UniProt P07711). Description: Inhibition of human Cathepsin L.
Another test concerns the target T1, Cathepsin K (Homo sapiens, UniProt P43235).
T1 sequence (P43235 whole entry): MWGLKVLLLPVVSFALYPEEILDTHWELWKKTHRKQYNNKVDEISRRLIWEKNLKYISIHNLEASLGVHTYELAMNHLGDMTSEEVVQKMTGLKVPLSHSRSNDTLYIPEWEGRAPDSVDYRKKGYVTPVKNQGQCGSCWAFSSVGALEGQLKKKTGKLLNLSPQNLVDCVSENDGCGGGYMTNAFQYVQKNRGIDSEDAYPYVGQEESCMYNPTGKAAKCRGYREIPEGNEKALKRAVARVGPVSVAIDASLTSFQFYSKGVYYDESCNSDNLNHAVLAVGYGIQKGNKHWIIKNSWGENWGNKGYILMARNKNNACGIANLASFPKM
Description: Inhibition of Cathepsin K (unknown origin).

For test [2], the species on record is Homo sapiens. The test is described as follows: Inhibition of cIAP BIR3 domain (unknown origin) at 1000 uM relative to control.

Cathepsin S, sequence (P25774 whole entry): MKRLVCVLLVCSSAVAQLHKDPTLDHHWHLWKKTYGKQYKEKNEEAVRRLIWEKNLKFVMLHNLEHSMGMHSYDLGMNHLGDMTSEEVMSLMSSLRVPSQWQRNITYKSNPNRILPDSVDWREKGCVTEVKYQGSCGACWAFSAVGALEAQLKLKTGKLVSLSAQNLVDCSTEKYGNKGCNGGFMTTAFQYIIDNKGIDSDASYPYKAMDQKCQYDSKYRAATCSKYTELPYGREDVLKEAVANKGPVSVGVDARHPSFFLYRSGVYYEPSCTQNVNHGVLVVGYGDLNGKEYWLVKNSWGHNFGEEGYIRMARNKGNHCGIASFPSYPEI
Procathepsin L, sequence (P07711 whole entry): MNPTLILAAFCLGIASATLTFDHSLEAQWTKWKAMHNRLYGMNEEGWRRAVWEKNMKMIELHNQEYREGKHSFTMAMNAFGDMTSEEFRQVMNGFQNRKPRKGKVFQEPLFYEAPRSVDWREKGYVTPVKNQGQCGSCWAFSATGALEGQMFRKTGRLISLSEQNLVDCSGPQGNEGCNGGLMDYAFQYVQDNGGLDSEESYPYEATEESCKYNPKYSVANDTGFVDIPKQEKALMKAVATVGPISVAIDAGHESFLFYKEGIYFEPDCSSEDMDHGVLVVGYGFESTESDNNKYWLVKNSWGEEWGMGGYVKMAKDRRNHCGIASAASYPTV

By inhibition is commonly meant the share of the control response that was lost under treatment. Higher therefore signals a response far below the control. With `C[C@@H]1CN(CC(=O)N2CCc3ccccc32)CCN1`, the inhibition in the test listed under Homo sapiens [1] was 42%. The term IC50 denotes the concentration needed to halve the response being measured. Higher therefore signals a need for much substance. On to `COc1ccc(S(=O)(=O)[C@@H]2C[C@@H](C(=O)NC3(C#N)CC3)N(C(=O)C3(c4ccc(Cl)cn4)CNC3)C2)c(Cl)c1`, for which the IC50 on Cathepsin S was 1.4 nM; against Procathepsin L it was 36 nM; at Cathepsin K, 6500 nM. On to `COc1ccc(S(=O)(=O)[C@@H]2C[C@@H](C(=O)NC3(C#N)CC3)N(C(=O)C3(c4ccc(Cl)cn4)CC3)C2)c(Cl)c1`, for which, on Cathepsin K, inhibition was half-maximal at 11000 nM (IC50). Consider `C[C@@H]1CN(CC(=O)N2CCc3ccc(N)cc32)CCN1`, for which, in the test listed under Homo sapiens [2], the inhibition came out at 8%. On to `N#CC1(NC(=O)[C@@H]2C[C@@H](S(=O)(=O)c3ccccc3Cl)CN2C(=O)C2(c3ncc(Br)cc3F)CNC2)CC1`, for which the IC50 on Cathepsin S was found to be 1 nM; against Procathepsin L, 5 nM; against Cathepsin K, 2000 nM.
